Results on 71 sequences are retold here after the OligoGym collection.

Values joined by “and” are separate entries in the source; they are usually repeats but may differ in a detail not shown here. Equal entries are not always repeated. After the bases stand the sugars from the 5' end (letter, count) and the backbone: PS all phosphorothioate, else s phosphorothioate and o phosphodiester by linkage. Methylation of C is not given here. k = constrained ethyl (cEt); d = 2'-deoxy (DNA)

The target in the data set is MALAT1. The note with it: ASO, A431, 0.005 µM.
As to AAACCCCCGGAACTTT (sugars k3 d10 k3, PS), the target mRNA inhibition came out at 5%.
For AGCTTCATCAAACACT (sugars k3 d10 k3, PS) the value was 3%; for AGTAGTTGTATTAATC (sugars k3 d10 k3, PS), 64% and 41%.
The result for GGTTAGGTATGAGCTT (sugars k3 d10 k3, PS) reads 8%.
For TTAGTTGGCATCAAGG (sugars k3 d10 k3, PS) the value was 74% and 70%; for AAAAGTGGTTGCCCGC (sugars k3 d10 k3, PS), 28%; for CAACTAAGCGAATGGC (sugars k3 d10 k3, PS), 24%.
Regarding TTCGGCTTCTTTTATT (sugars k3 d10 k3, PS), the target mRNA inhibition was determined as 44%.
Turning to TCAATAGTACTATAGC (sugars k3 d10 k3, PS), the target mRNA inhibition was 25%.
As to GCGCCGGGCTTCTGCG (sugars k3 d10 k3, PS), the target mRNA inhibition amounted to 29%.
For TGCAGTTTCTATAGTA (sugars k3 d10 k3, PS), the target mRNA inhibition is 9%.
Consider GTTCGCAGACAAAGTT (sugars k3 d10 k3, PS), for which the target mRNA inhibition was found to be 36%.
The result for CCTTTGTGAGGGAGGC (sugars k3 d10 k3, PS) reads -5%; that for TTGTGAGGGAGGCAAA (sugars k3 d10 k3, PS), 20%; that for GAGTGAAGTGTACTAT (sugars k3 d10 k3, PS), 62% and 77%.
For AGCTTGTTCACCTGTT (sugars k3 d10 k3, PS), the target mRNA inhibition is 37%.
GAAACCTGGGCTCCCG (sugars k3 d10 k3, PS): the target mRNA inhibition worked out at 13%.
For TTAAAAGATCGCCTTC (sugars k3 d10 k3, PS) the value was 43%.
For the sequence GCCCGCTTTCCCCCTT (sugars k3 d10 k3, PS), the target mRNA inhibition is -29%.
With CTTCAACAATCACTAC (sugars k3 d10 k3, PS), the target mRNA inhibition is 2%.
For the sequence CTTATCCCTAACATGC (sugars k3 d10 k3, PS), the target mRNA inhibition came out at 41%.
The result for CTTCTATAGTCTGAAG (sugars k3 d10 k3, PS) reads 18%; that for AGTTTATCTGCAATCA (sugars k3 d10 k3, PS), 46% and 59%; that for CGTCCTGGAAACCAGG (sugars k3 d10 k3, PS), 21%.
GGACAGCTAAGATAGC (sugars k3 d10 k3, PS): the target mRNA inhibition was found to be 22%.
For CCTGATCTGGTCCATT (sugars k3 d10 k3, PS) the value was 44%.
For GCAGCGGGATCAGAAC (sugars k3 d10 k3, PS) the value was 34%.
The result for CAGTAGGCCAGACCAA (sugars k3 d10 k3, PS) reads 14%.
CAAGATTGCCCCAACA (sugars k3 d10 k3, PS): the target mRNA inhibition stood at 12%.
The result for ACCTTGGGCAGCCAGT (sugars k3 d10 k3, PS) reads -4%; that for AGACAGATTAGTAGTC (sugars k3 d10 k3, PS), -8%.
CTTTCCATTACGCAAC (sugars k3 d10 k3, PS): the target mRNA inhibition amounted to 0%.
For TTACGCAACTGAGCCC (sugars k3 d10 k3, PS) the value was 11%; for TCAATCCACTTGATCC (sugars k3 d10 k3, PS), 14%.
The result for CTTGATCCCAACTCAT (sugars k3 d10 k3, PS) reads 11%.
The result for TAACTTCCCCCAGCTT (sugars k3 d10 k3, PS) reads 20%.
As to ATTGGTAGCTTTCATT (sugars k3 d10 k3, PS), the target mRNA inhibition was 70% and 83%.
For CAGCTCGGGCGAGGCG (sugars k3 d10 k3, PS) the value was 13%.
For CTGAAATCCCCTAGGG (sugars k3 d10 k3, PS) the value was 30%.
The result for TCTAGGCCATCATACT (sugars k3 d10 k3, PS) reads 40%; that for GCTTACAGATTTGCTG (sugars k3 d10 k3, PS), 8%; that for GCTGATAAACTCACTG (sugars k3 d10 k3, PS), 55% and 65%.
Turning to CCGCAGGGATTTGAAC (sugars k3 d10 k3, PS), the target mRNA inhibition came out at 2%.
Take CACCAAATTGCACTCG (sugars k3 d10 k3, PS): the target mRNA inhibition was 54% and 73%.
The result for ACATATTTTGCCCCCA (sugars k3 d10 k3, PS) reads 19%; that for GACCATCCCAAAATGC (sugars k3 d10 k3, PS), 8%.
For AGCACGGGCTGTCTGC (sugars k3 d10 k3, PS), the target mRNA inhibition amounted to 7%.
For AACCCCCGGAACTTTT (sugars k3 d10 k3, PS), the target mRNA inhibition is 1%.
For GTACGAAACTCCCCCA (sugars k3 d10 k3, PS) the value was 38%; for AGCTCTATACTTTGAA (sugars k3 d10 k3, PS), 64%; for CAAACTAAGCTACTAT (sugars k3 d10 k3, PS), 15%.
The result for CCCACGGCCCGCACGG (sugars k3 d10 k3, PS) reads 14%; that for GGTTTAAGTTGGTTTT (sugars k3 d10 k3, PS), 90% and 97%.
For TCATTAAGCCACTTCC (sugars k3 d10 k3, PS), the target mRNA inhibition was found to be 19%.
For ACCAAAGACCTCGACA (sugars k3 d10 k3, PS) the value was 14%; for ATGGCTTTGTCTCCGA (sugars k3 d10 k3, PS), 15%; for AAAGGTTACCATAAGT (sugars k3 d10 k3, PS), 5%.
The result for CAGGCTGGTTATGACT (sugars k3 d10 k3, PS) reads 26%; that for ACATCAAGGATGTATA (sugars k3 d10 k3, PS), -6%.
The result for GACTGAATATGAACCA (sugars k3 d10 k3, PS) reads 51% and 76%; that for GCACTGATCACTTTAG (sugars k3 d10 k3, PS), 63% and 47% and 50%.
For the sequence ATCTGCGGCCCCCCAG (sugars k3 d10 k3, PS), the target mRNA inhibition was -8%.
The result for CCCTAACATGCAATAC (sugars k3 d10 k3, PS) reads 14%; that for GATTGTAAGCATTTAA (sugars k3 d10 k3, PS), 54% and 67%; that for CTTCTATTGGTATTAA (sugars k3 d10 k3, PS), 18%.
In the case of GAAACCAGGAGTGCCA (sugars k3 d10 k3, PS), the target mRNA inhibition stood at 4%.
The result for TACAGAAAGAGTCCTG (sugars k3 d10 k3, PS) reads 17%; that for AGAAATCGGAGCAGCA (sugars k3 d10 k3, PS), 9%.
The result for AACTAAGCTACTATAT (sugars k3 d10 k3, PS) reads -2%.
As to CTACAGACAAACACTA (sugars k3 d10 k3, PS), the target mRNA inhibition stood at 6%.
For AAAACCCCCGGAACTT (sugars k3 d10 k3, PS) the value was 9%.
